Key:
[1] = biological target: T1, C-X-C chemokine receptor type 3 (Homo sapiens, UniProt P49682); test: Binding affinity to human CXCR3 receptor
T1 sequence (P49682 whole entry): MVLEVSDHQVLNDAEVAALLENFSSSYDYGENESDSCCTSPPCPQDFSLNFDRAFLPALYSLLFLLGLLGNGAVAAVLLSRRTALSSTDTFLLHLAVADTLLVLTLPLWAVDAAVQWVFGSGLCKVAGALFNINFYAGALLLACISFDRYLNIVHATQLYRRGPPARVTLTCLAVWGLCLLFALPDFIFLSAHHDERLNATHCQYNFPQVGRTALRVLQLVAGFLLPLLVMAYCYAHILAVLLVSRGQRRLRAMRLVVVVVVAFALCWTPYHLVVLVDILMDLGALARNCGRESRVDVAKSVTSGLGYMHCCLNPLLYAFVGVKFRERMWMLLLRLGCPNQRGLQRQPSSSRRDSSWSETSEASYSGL

[2] = biological target: Voltage-gated inwardly rectifying potassium channel KCNH2 (Homo sapiens, UniProt Q12809); test: Inhibition of human ERG channel by Rb efflux assay
Sequence of Voltage-gated inwardly rectifying potassium channel KCNH2 (Q12809 whole entry): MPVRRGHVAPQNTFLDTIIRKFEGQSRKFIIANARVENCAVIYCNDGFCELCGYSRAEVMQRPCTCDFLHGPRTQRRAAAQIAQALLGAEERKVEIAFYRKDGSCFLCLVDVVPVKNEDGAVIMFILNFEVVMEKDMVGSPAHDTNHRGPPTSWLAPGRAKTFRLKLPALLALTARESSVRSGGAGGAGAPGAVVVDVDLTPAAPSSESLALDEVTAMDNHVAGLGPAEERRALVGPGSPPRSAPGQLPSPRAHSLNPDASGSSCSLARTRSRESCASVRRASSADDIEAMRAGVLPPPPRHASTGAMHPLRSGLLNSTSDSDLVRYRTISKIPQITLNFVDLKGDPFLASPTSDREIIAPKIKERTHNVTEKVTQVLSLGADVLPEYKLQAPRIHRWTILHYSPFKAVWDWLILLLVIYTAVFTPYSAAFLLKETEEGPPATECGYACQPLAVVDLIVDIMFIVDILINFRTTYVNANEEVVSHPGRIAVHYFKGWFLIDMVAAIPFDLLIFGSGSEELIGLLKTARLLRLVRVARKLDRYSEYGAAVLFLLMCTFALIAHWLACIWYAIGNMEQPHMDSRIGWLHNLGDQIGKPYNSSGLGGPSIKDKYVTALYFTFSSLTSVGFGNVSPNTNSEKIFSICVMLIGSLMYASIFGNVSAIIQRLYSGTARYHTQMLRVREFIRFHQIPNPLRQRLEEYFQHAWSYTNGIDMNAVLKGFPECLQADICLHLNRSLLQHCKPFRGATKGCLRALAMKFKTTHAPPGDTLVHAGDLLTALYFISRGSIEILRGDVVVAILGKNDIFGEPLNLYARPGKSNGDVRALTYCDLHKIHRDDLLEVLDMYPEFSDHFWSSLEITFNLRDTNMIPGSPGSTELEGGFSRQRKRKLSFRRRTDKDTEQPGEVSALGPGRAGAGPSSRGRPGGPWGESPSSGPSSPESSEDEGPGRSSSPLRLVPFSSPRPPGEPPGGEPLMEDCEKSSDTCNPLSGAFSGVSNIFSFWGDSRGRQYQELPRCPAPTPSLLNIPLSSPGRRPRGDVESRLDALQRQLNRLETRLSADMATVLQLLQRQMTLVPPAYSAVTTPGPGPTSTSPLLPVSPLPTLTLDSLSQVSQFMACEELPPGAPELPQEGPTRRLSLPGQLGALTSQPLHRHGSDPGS

Rattus norvegicus [3] = test: (§1) AUC in rat at 10 mg/kg, po; format: ADME, organism-based, Plasma; set-up: dose 10 mg/kg, route oral; conditions: in vivo
Rattus norvegicus [4] = test: AUC in rat at 10 mg/kg, po after 6 hrs; format: ADME, organism-based, Plasma; set-up: time < 6 hr, dose 10 mg/kg, route oral; conditions: in vivo
[5] = as §1; format: ADME, organism-based, Plasma; set-up: dose 10 mg/kg, route oral; conditions: plasma

Compound | IC50 [1] [nM] | AUC (Rattus norvegicus [3]) [uM.hr/ml] | AUC (Rattus norvegicus [4]) [uM.hr/ml] | AUC [5] [µM·h] | inhibition (INH) [2] [%]
CCNc1nnc(-c2cnc(N3CCN(C4CCN(C(=O)c5ccc(Cl)nc5N)CC4)[C@@H](CC)C3)c(C3CC3)n2)o1 | 24.5 |  |  |  | 14
CCNc1nnc(-c2cnc(N3CCN(C4CCN(C(=O)c5ccc(Cl)nc5N)CC4)[C@@H](CC)C3)c(C)n2)o1 | 1.2 | 2.6 | 0.1 |  | 12
CC[C@H]1CN(c2ncc(-c3nnc[nH]3)nc2C)[C@H](C)CN1C1CCN(C(=O)c2ccc(Cl)cc2)CC1 | 33.8 | 26.5 | 4.9 |  | 4
CC[C@H]1CN(c2nc(N)c(-c3nnc(NCCO)o3)nc2Cl)CCN1C1CCN(C(=O)c2ccc(Cl)nc2N)CC1 | 3.9 | 0.1 |  |  | 0
CCNc1nnc(-c2cnc(N3CCN(C4CCN(C(=O)c5ccc(Cl)nc5N)CC4)[C@@H](CC)C3)c(C(F)(F)F)n2)o1 | 1.5 | 25.3 | 4.2 |  | 43
CC[C@H]1CN(c2ncc(C3=NCCN3)cc2Cl)CCN1C1CCN(Cc2ccc(Cl)cc2F)CC1 | 1.3 |  |  |  | 
CC[C@H]1CN(c2nc(N)c(-c3nnco3)nc2Cl)CCN1C1CCN(Cc2ccc(Cl)cc2)CC1 | 5.2 |  |  |  | 
CC[C@H]1CN(c2nc(N)c(-c3nnc(CO)o3)nc2Cl)CCN1C1CCN(C(=O)c2ccc(Cl)nc2N)CC1 | 2.2 | 2.5 |  |  | 16
CC[C@H]1CN(c2nc(N)c(-c3nnc(C)o3)nc2Cl)CCN1C1CCN(Cc2ccc(Cl)cc2)CC1 | 0.4 | 1 |  |  | 
CCNc1nnc(-c2cnc(N3C[C@H](CC)N(C4CCN(C(=O)c5ccc(Cl)nc5N)CC4)C[C@H]3C)c(C(F)(F)F)n2)o1 | 3.6 | 30.2 | 5.1 |  | 22
CCNc1nnc(-c2cnc(N3CCN(C4CCN(C(=O)c5ccc(Cl)nc5N)CC4)[C@@H](CC)C3)c(CC)n2)o1 | 3.8 |  |  |  | 4
CCNc1nnc(-c2cnc(N3CCN(C4CCN(C(=O)c5ccc(Cl)cc5)CC4)[C@@H](CC)C3)c(C)n2)o1 | 1.2 | 16.4 | 0.9 |  | 40
CC[C@H]1CN(c2ncc(C#N)cc2Cl)CCN1C1CCN(Cc2ccc(Cl)cc2F)CC1 | 50.5 |  |  |  | 
CC[C@H]1CN(c2nc(N)c(-c3nnc(C)o3)nc2Cl)CCN1C1CCN(C(=O)c2ccc(Cl)nc2N)CC1 | 2 | 10.2 |  |  | 26
CCNc1nnc(-c2cnc(N3CCN(C4CCN(C(=O)c5ccc(Cl)nc5N)CC4)[C@@H](CC)C3)c(Cl)n2)o1 | 0.8 | 40.4 | 1.4 |  | 14
CC[C@H]1CN(c2nc(N)c(-c3nnc(N)o3)nc2Cl)CCN1C1CCN(C(=O)c2ccc(Cl)nc2N)CC1 | 1.3 | 0.3 |  |  | 7
CC[C@H]1CN(c2ncc(-c3nnc(NC)o3)nc2C)[C@H](C)CN1C1CCN(C(=O)c2ccc(Cl)cc2)CC1 | 6.2 | 18 | 2.4 |  | 17
CC[C@H]1CN(c2nc(N)c(-c3nnc(NC)o3)nc2Cl)CCN1C1CCN(C(=O)c2ccc(Cl)nc2N)CC1 | 1.6 | 5.5 |  |  | 39
CC[C@H]1CN(c2ncc(-c3nnc[nH]3)cc2Cl)CCN1C1CCN(Cc2ccc(Cl)cc2F)CC1 | 6.8 |  |  |  | 
CCNc1nnc(-c2cnc(N3C[C@H](CC)N(C4CCN(C(=O)c5ccc(Cl)nc5N)CC4)C[C@H]3C)c(C)n2)o1 | 3.4 | 15.3 | 0.8 |  | 4
CC[C@H]1CN(c2nc(N)c(C(N)=O)nc2Cl)CCN1C1CCN(Cc2ccc(Cl)cc2)CC1 |  | 5.1 |  |  | > 90

The next lines start with results.

IC50 [1] [nM] | AUC (Rattus norvegicus [3]) [uM.hr/ml] | AUC (Rattus norvegicus [4]) [uM.hr/ml] | AUC [5] [µM·h] | Compound | inhibition (INH) [2] [%]
0.3 |  |  |  | CC[C@H]1CN(c2ncc(-c3ncc[nH]3)cc2Cl)CCN1C1CCN(Cc2ccc(Cl)cc2F)CC1 | 
4.2 | 3.9 |  |  | CC[C@H]1CN(c2nc(N)c(-c3nnc(C)o3)nc2Cl)CCN1C1CCN(C(=O)c2ccc(Cl)cc2)CC1 | 85
760 |  |  |  | CC[C@H]1CN(c2ncc(-c3noc(=O)[nH]3)cc2Cl)CCN1C1CCN(Cc2ccc(Cl)cc2F)CC1 | 
1380 |  |  |  | CC[C@H]1CN(c2ncc(-c3nnn[nH]3)cc2Cl)CCN1C1CCN(Cc2ccc(Cl)cc2F)CC1 | 
437 |  |  |  | CCNc1nnc(-c2cnc(N3CCN(C4CCN(C(=O)c5ccc(Cl)nc5N)CC4)[C@@H](CC)C3)c(C(C)C)n2)o1 | 8
1.4 |  |  | 1.8 | CC[C@H]1CN(c2ncc(-c3nnco3)cc2Cl)CCN1C1CCN(Cc2ccc(Cl)cc2F)CC1 | 
286 |  |  |  | CC[C@H]1CN(c2ncc(-c3ncon3)cc2Cl)CCN1C1CCN(Cc2ccc(Cl)cc2F)CC1 | 
1.8 | 9.9 | 2.3 |  | CCNc1nnc(-c2cnc(N3C[C@H](CC)N(C4CCN(C(=O)c5ccc(Cl)cc5)CC4)C[C@H]3C)c(C(F)(F)F)n2)o1 | 27
1.6 | 7.3 | 0.8 |  | CC[C@H]1CN(c2ncc(-c3ncc[nH]3)nc2C)[C@H](C)CN1C1CCN(C(=O)c2ccc(Cl)cc2)CC1 | 36
6 |  |  |  | CC[C@H]1CN(c2nc(N)c(-c3nnc(C4CC4)o3)nc2Cl)CCN1C1CCN(C(=O)c2ccc(Cl)nc2N)CC1 | 72
1.8 | 6.7 | 0.3 |  | CC[C@H]1CN(c2ncc(-c3ncc[nH]3)nc2C)[C@H](C)CN1C1CCN(C(=O)c2ccc(Cl)nc2N)CC1 | 22
23.6 |  |  |  | CC[C@H]1CN(c2nc(N)c(-c3nnc(N(C)C)o3)nc2Cl)CCN1C1CCN(C(=O)c2ccc(Cl)nc2N)CC1 | 67
6.4 | 12.7 | 1 |  | CC[C@H]1CN(c2ncc(-c3nnc(N)o3)nc2C)[C@H](C)CN1C1CCN(C(=O)c2ccc(Cl)cc2)CC1 | 0
1 | 16.6 |  |  | CCNc1nnc(-c2nc(Cl)c(N3CCN(C4CCN(C(=O)c5ccc(Cl)nc5N)CC4)[C@@H](CC)C3)nc2N)o1 | 26
2300 |  |  |  | CC[C@H]1CN(c2nc(N)c(-c3nnc(NS(C)(=O)=O)o3)nc2Cl)CCN1C1CCN(C(=O)c2ccc(Cl)nc2N)CC1 | 5
2.8 | 16.6 | 3.3 |  | CCNc1nnc(-c2cnc(N3C[C@H](CC)N(C4CCN(C(=O)c5ccc(Cl)cc5)CC4)C[C@H]3C)c(C)n2)o1 | 25
